Reference: patent US20180207294A1, “NON-ALCOHOLIC FATTY LIVER REGULATING FACTOR 14-3-3 PROTEIN” (Korea University Research and Business Foundation, priority 2015, published 2018)

What was measured:
Type in all cases: cell-based
[1] = system: primary mouse hepatocytes; assay: Oil Red-O lipid accumulation, primary mouse hepatocytes; conditions: 14-3-3 overexpression, 200 μM oleic acid 72 hours, FIG. 9B
Protocol: HepG2 cells and primary mouse hepatocytes were separately seeded in a 6-well plate at a density of 4×10^5 cells per each well, and then transfected with GFP-14-3-3β DNA (1 μg) or GFP-14-3-3γ DNA (1 μg) and si-14-3-3β (10 μM, Santa Cruz) or si-14-3-3γ (10 μM, Santa Cruz) using an E-fection plus reagent (Lugen). A ratio of DNA to the E-fection plus reagent was 1:2, and this method was performed according to a manufacturer's manual. […] The stained cells were bleached with 1 ml of isopropanol and analyzed at a wavelength of 550 nm using a DU530 spectrophotometer (Beckman Instruments, Palo Alto, Calif.).

FAT/CD36 promoter = assay: Chromatin immunoprecipitation (ChIP) of PPARγ2 on FAT/CD36 promoter, HepG2 cells; conditions: overexpression of 14-3-3β / 14-3-3γ, FIG. 7C upper side
Protocol: In addition, for chromatin immunoprecipitation (ChIP), HepG2 cells were seeded in a 100 mm plate at a density of 4×10^6 cells per each well, and then transfected with Flag-PPARγ2 DNA (4 μg), mGST-14-3-3β DNA (4 μg) or mGST-14-3-3γ DNA (4 μg), and si-14-3-3β (20 μM, Santa Cruz) or si-14-3-3γ (20 μM, Santa Cruz) using an E-fection plus reagent (Lugen). A ratio of DNA to the E-fection plus reagent was 1:2, and this method was performed according to a manufacturer's manual. The corresponding cells were treated with 0.75% formaldehyde at room temperature for 15 minutes, glycine was added thereto, and the resulting cells were scraped into ice-cold PBS and centrifuged at 1,000×g and 4° C. for 3 minutes to remove a supernatant, pellets were dissolved with 400 μl of FA lysis buffer (50 mM HEPES, 150 mM NaCl, 2 mM EDTA pH8.0, 1% Triton-X100, 0.1% NaDeoxycholate), and then lysed using a sonicator twice for 10 minutes at a high voltage under the following condition: lysis for […] and resting for 30 seconds. […]
In addition, the binding of PPARγ2 and a binding strength thereof according to the expression of 14-3-3β and 14-3-3γ were evaluated by ChIP assay using a PPAR response element (PPRE) known as a binding site of PPARγ2 present in the FAT/CD36 promoter. […]

PPARγ2 S273A mutant = target: T1, PPARγ2 S273A mutant (Homo sapiens, UniProt P37231, S273A); assay: aP2 promoter luciferase assay with PPARγ2 S273A mutant (HEK-293T); conditions: FIG. 4C, 4D
T1 construct: expressed in transfected cells; host or cells: HEK-293T
T1 sequence (P37231 1-505 S273A): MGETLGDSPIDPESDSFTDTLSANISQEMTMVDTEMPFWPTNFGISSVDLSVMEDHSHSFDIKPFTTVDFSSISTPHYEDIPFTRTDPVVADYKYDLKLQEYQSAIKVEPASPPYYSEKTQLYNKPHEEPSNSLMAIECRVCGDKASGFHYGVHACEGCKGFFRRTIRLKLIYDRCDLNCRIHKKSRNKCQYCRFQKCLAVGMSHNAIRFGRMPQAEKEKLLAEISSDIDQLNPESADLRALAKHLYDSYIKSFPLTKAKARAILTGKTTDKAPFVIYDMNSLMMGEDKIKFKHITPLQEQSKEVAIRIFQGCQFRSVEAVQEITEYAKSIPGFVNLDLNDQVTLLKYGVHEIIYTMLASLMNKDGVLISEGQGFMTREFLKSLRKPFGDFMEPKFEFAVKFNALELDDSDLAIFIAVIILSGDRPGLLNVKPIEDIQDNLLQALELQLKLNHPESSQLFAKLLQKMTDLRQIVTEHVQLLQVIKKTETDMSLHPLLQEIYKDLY
Protocol: In addition, HEK-293T cells were seeded in a 12-well plate at a density of 1×10^5 cells per each well, and then transfected with an aP2 promoter construct (0.5 μg), Flag-PPARγ2 (S112A) DNA (0.5 μg) or Flag-PPARγ2 (S273A) DNA (0.5 μg), and mGST-14-3-3β DNA (0.5 μg) or mGST-14-3-3γ DNA (0.5 μg) using an E-fection plus reagent (Lugen). A ratio of DNA to the E-fection plus reagent was 1:2, and this method was performed according to a manufacturer's manual. The corresponding cells were washed with ice-cold PBS, and lysed using 80 μl/well of a reporter lysis buffer (Promega, Madison, Wis.), and the lysed cells were centrifuged at 10,000×g and 4° C. for 10 minutes to collect a supernatant, and luciferase activity was measured. As an instrument, Luminometer 20/20n (Turner Biosystems, Sunnyvale, Calif.) was used. For normalization, the cells were cotransfected with pSV40β-galactosidase. For the collected supernatant, β-galactosidase activity was measured and the luciferase activity was revised, and the obtained values were plotted. At this time, a β-galactosidase enzyme analysis system (Promega, Madison, Wis.) was used, and analysis was performed using a DU530 spectrophotometer (Beckman Instruments, Palo Alto, Calif.).

| change in transcriptional activity of PPARγ2 S273A mutant on 14-3-3 overexpression (PPARγ2 S273A mutant) | Substance | lipid accumulation by oleic acid (Oil Red-O) [1] | binding of PPARγ2 to the FAT/CD36 promoter (ChIP) (FAT/CD36 promoter) |
| --- | --- | --- | --- |
| no change | 14-3-3β: 14-3-3 isoform protein, overexpressed by DNA transfection; regulating factor that increases transcriptional activity of PPARγ2 | increased lipid accumulation | increased |
| no change | 14-3-3γ: 14-3-3 isoform protein, overexpressed by DNA transfection; regulating factor that decreases transcriptional activity of PPARγ2 | reduced lipid accumulation | inhibited |
